Source: US7846928B2, “Substituted pyrazolopyridines and salts thereof, pharmaceutical compositions comprising same, methods of preparing same and uses of same” (Bayer Schering Pharma AG, priority 2006, dated 2010)

Tests used:
[1] = target: T1, human insuline receptor (Ins-R) kinase domain (Homo sapiens, UniProt P06213); assay: InsR HTRF assay (assay 4); type: biochemical; conditions: IC50 assay 4/IC50 assay 2
T1 construct: GST-tagged recombinant kinase domain of the human insuline receptor; GST; purchased ProQinase, Freiburg, Germany; host or cells: SF-9 cells
T1 sequence (P06213 1023-1298 limits assumed): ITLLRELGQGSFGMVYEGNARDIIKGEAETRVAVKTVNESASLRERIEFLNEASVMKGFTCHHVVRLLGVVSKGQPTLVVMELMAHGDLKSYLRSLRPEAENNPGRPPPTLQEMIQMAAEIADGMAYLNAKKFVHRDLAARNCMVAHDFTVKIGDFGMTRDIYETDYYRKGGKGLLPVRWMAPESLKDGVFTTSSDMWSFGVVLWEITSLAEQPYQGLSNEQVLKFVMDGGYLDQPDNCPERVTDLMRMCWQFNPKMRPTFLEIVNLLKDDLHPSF
Method: Inhibitory activity of compounds against the kinase activity of the insulin receptor was quantified employing the Ins-R HTRF assay as described in the following paragraphs.
GST-tagged recombinant kinase domain of the human insuline receptor (Ins-R, purchase from ProQinase, Freiburg, Germany) expressed in SF-9 cells was used as kinase. As substrate for the kinase reaction biotinylated poly-(Glu,Tyr) (Cis biointernational, France) was used.
Ins-R was incubated for 20 min at 22° C. in the presence of different concentrations of test compounds in 5 μl assay buffer [50 mM Hepes/NaOH pH 7, 15 mM MnCl2, 1 mM dithiothreitol, 0.1 μM sodium ortho-vanadate, 0.015% (v/v) PEG20000, 10 μM adenosine-tri-phosphate (ATP), 0.3 μg/ml substrate, 1% (v/v) dimethylsulfoxide]. The concentration of Ins-R was adjusted depending of the activity of the enzyme lot and was chosen appropriate to have the assay in the linear range, typical concentrations were in the range of 10 pg/μl. The reaction was stopped by the addition of 5 μl of a solution of HTRF detection reagents (0.1 μM streptavidine-XLent and 1 nM PT66-Eu-Chelate, an europium-chelate labelled anti-phosphotyrosine antibody from Perkin Elmer) in an aqueous EDTA-solution (80 mM EDTA, 0.2% (w/v) bovine serum albumin in 50 mM HEPES/NaOH pH 7.0).
The resulting mixture was incubated 1 h at 22° C. to allow the binding of the biotinylated phosphorylated peptide to the streptavidine-XLent and the PT66-Eu-Chelate. Subsequently the amount of phosphorylated substrate was evaluated by measurement of the resonance energy transfer from the PT66-Eu-Chelate to the streptavidine-XLent. Therefore, the fluorescence emissions at 620 nm and 665 nm after excitation at 350 nm was measured in a HTRF reader, e.g. a Rubystar (BMG Labtechnologies, Offenburg, Germany) or a Viewlux (Perkin-Elmer). The ratio of the emissions at 665 nm and at […] was taken as the measure for the amount of phosphorylated substrate. The data were normalised (enzyme reaction without inhibitor=0% inhibition, all other assay components but no enzyme=100% inhibition) and IC50 values were calculated by a 4 parameter fit using an inhouse software.

[2] = target: Tie2 (Homo sapiens, UniProt Q02763); assay: Tie2 ELISA assay (assay 1): cellular Tie2 autophosphorylation in Tie2-transfected CHO cells stimulated by angiopoietin-2; type: cell-based; set-up: expressed in transfected cells; host or cells: CHO (DHFR-deficient), stably transfected: CHO Tie2/DHFR; conditions: CHO Tie2/DHFR cells, Ang2 stimulated, Tie2 autophosphorylation sandwich-ELISA; pIC50 = -log IC50 molar; read-out: Tie 2 activity (assay 1)
Sequence of Tie2 (Q02763 23-1124): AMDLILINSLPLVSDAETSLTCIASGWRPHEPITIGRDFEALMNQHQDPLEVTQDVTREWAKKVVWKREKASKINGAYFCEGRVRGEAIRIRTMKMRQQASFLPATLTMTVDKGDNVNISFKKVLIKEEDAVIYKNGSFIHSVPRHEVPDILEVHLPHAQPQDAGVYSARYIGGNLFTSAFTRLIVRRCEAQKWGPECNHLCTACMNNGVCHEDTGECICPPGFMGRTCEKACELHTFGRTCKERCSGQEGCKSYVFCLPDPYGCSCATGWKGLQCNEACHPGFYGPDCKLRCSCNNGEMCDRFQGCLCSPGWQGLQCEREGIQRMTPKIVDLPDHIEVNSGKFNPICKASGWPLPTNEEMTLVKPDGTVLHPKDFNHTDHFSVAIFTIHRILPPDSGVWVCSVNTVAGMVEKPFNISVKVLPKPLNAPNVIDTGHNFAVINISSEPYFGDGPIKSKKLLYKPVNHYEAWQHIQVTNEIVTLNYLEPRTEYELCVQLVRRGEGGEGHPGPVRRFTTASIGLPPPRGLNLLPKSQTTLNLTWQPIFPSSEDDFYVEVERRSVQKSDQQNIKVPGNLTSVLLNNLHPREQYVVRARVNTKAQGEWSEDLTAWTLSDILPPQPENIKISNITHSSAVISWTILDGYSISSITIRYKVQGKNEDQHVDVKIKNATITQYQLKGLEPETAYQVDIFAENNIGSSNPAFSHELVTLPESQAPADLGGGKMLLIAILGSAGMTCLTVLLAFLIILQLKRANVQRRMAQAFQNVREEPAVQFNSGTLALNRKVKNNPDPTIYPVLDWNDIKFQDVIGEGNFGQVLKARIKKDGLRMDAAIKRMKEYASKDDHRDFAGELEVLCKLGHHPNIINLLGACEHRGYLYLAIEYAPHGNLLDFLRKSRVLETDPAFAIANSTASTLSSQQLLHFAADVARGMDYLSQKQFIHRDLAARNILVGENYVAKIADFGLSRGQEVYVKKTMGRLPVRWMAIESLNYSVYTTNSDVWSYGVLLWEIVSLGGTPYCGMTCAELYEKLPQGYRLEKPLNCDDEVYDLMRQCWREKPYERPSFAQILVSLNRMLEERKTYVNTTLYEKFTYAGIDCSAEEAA
Method: Cellular activity of compounds of the present invention as inhibitors of Tie2 kinase activity was measured employing a Tie2 ELISA assay as described in the following paragraphs. Herein CHO cell-cultures, which are stably transfected by known techniques with Tie2 using DHFR deficiency as selection marker, are stimulated by angiopoietin-2. The specific autophosphorylation of Tie2 receptors is quantified with a sandwich-ELISA using anti-Tie2 antibodies for catch and anti-phosphotyrosine antibodies coupled to HRP for detection.
• 96 well tissue culture plate, sterile, Greiner • 96 well FluoroNunc plate MaxiSorp Surface C, Nunc • 96 well plate polypropylene for compound dilution in DMSO • CHO Tie2/DHFR (transfected cells) • PBS−; PBS++, DMSO • MEM alpha Medium with Glutamax-I without Ribonucleosides and • Deoxyribonucleosides (Gibco #32561-029) • with 10% FCS after dialysis! and 1% PenStrep • Lysis buffer: 1 Tablet “Complete” protease inhibitor • 1 cap Vanadate (1 mL>40 mg/mL; working solution 2 mM) • ad 50 mL with Duschl-Puffer • pH 7.6 • Anti-Tie2-antibody 1:425 in Coating Buffer pH 9.6 • Stock solution: 1.275 mg/mL>working: 3 μg/mL • PBST: 2 bottles PBS(10×)+10 ml Tween, fill up with VE-water • RotiBlock 1:10 in VE-water • Anti-Phosphotyrosine HRP-Conjugated 1:10000 in 3% TopBlock • 3% TopBlock in PBST • BM Chemiluminescence ELISA Substrate (POD) • solution B1:100 solution A • SF9 cell culture medium • Ang2-Fc in SF9 cell culture medium Cell Experiment: • Dispense 5×10^4 cells/well/98 μL in 96 well tissue culture plate • Incubate at 37° C./5% CO2 • After 24 h add compounds according to desired concentrations • Add also to control and stimulated values without compounds 2 μL DMSO • And mix for a few min at room temperature • Add 100 μL Ang2-Fc to all wells except control, which receives insect medium • Incubate 20 min at 37° C. • Wash 3× with PBS++ • Add 100 μl Lysis buffer/well and shake a couple of min at room temperature • Store lysates at 20° C. before utilizing for the ELISA Performance of Sandwich-ELISA • Coat 96 well FluoroNunc Plate MaxiSorp Surface C with anti-Tie2 mAb • 1:425 in Coating buffer pH 9.6; 100 μL/well overnight at 4° C. • Wash 2× with PBST • Block plates with 250 μL/well RotiBlock 1:10 in VE-water • Incubate for 2 h at room temperature or overnight at 4° C. shaking • Wash 2× in PBST • Add thawed lysates to wells and incubate overnight shaking at 4° C. • Wash 2× with PBST • Add 100 μL/well anti-Phosphotyrosine HRP-Conjugated 1:10000 in 3% • TopBlock (3% TopBlock in PBST) and incubate overnight under shaking • Wash 6× with PBST • Add 100 μL/well BM Chemiluminescence ELISA Substrate (POD) • solutions 1 und 2 (1:100) • Determine luminescence with the LumiCount. Assay 2: Tie-2-Kinase HTRF-Assay without Kinase Preactivation

Structure (SMILES) | Selectivity vs. InsR [1] [fold] | IC50 [2] [nM]
Cc1cc(-c2ccc(NC(=O)Nc3ccc(F)c(C(F)(F)F)c3)cc2)c2cnn(C)c2n1 [2.5, 1-[4-(1,6-Dimethyl-1H-pyrazolo[3,4-b]pyridin-4-yl)-phenyl]-3-(4-fluoro-3-trifluoromethyl-phenyl)-urea] | >20 | 501 to 1000
COc1ccc(C(F)(F)F)cc1NC(=O)Nc1ccc(-c2cc(C)nc3c2cnn3C)cc1 [2.7, 1-[4-(1,6-Dimethyl-1H-pyrazolo[3,4-b]pyridin-4-yl)-phenyl]-3-(2-methoxy-5-trifluoromethyl-phenyl)-urea] | >20 | < 501
Cn1ncc2c(-c3ccc(NC(=O)Nc4cccc(C(F)(F)F)c4)cc3)cc(CN3CCOCC3)nc21 [3.2, 1-[4-(1-Methyl-6-morpholin-4-ylmethyl-1H-pyrazolo[3,4-b]pyridin-4-yl)-phenyl]-3-(3-trifluoromethyl-phenyl)-urea] | >20 | < 501
CCc1cccc(NC(=O)Nc2ccc(-c3cc(CN4CCOCC4)nc4c3cnn4C)cc2)c1 [3.4, 1-(3-Ethyl-phenyl)-3-[4-(1-methyl-6-morpholin-4-ylmethyl-1H-pyrazolo[3,4-b]pyridin-4-yl)-phenyl]-urea] | >20 | < 501
Cc1ccc(F)c(NC(=O)Nc2ccc(-c3cc(CN4CCOCC4)nc4c3cnn4C)cc2)c1 [3.5, 1-(2-Fluoro-5-methyl-phenyl)-3-[4-(1-methyl-6-morpholin-4-ylmethyl-1H-pyrazolo[3,4-b]pyridin-4-yl)-phenyl]-urea] | >20 | < 501
